Where a name gives a salt, the structure may show the parent alone. Read-outs that look alike come from different tables or passages of the source.
Target: T1, 5HT2 receptors (Rattus norvegicus, UniProt P14842)
T1 construct: external jugular veins and thoracic aortas were dissected free of connective tissue; from tissue; host or cells: isolated external jugular vein of male Wistar rats
Experiment: Apparent antagonist dissociation constant (KB) for 5HT2 receptors: serotonin-induced contraction of isolated jugular vein
Set-up: species or system rat (male Wistar)
Description: Male Wistar rats, each weighing from approximately 150 g to about 300 g, were sacrificed and their external jugular veins and thoracic aortas were dissected free of connective tissue, cannulated in situ and placed in a modified Krebs' bicarbonate buffer in a suitable tissue bath. Two L-shaped 30-gauge stainlesssteel hypodermic needles were inserted into each cannula and the dissected vessels gently pushed onto the needles. One needle was attached with thread to a stationary glass rod and the other to the transducer. The modified Krebs' bicarbonate buffer was composed of the following ingredients in millimoles: sodium chloride, 118.2; potassium chloride, 4.6; calcium chloride dihydrate, 1.6; potassium dihydrogenphosphate, 1.2; magnesium sulfate, 1.2; dextrose, 10.0; sodium bicarbonate, 24.8; and water q.s. to 1000 g. The tissue baths were maintained at 37° C. and were aerated with 95% oxygen-5% carbon dioxide. An initial optimum resting force of 1 g and 4 g was applied to the jugular vein and aorta, respectively. Isometric contractions were recorded as changes in grams of force on a Beckman Dynograph with Statham UC-3 transducers and a microscale accessory attachment. Tissues were allowed to equilibrate 1 to 2 hours before exposure to the test compounds. Control responses to serotonin in the jugular vein and to norepinephrine in the aorta were obtained. The vessels were then incubated with appropriate concentrations of the test compound for one hour. Responses to serotonin or to norepinephrine were then repeated in the presence of the antagonist. Contraction to serotonin was evaluated in the jugular vein since this tissue is known to produce marked responses to serotonin in the absence of alpha receptors. See Cohen and Wiley, J. Pharm. Exp. Ther., 205, 400 (1978). Alpha receptor antagonist activity was evaluated in the aorta.
Apparent antagonist dissociation constants were determined for each concentration of antagonist according to the following equation: […]

T1 sequence (P14842 whole entry): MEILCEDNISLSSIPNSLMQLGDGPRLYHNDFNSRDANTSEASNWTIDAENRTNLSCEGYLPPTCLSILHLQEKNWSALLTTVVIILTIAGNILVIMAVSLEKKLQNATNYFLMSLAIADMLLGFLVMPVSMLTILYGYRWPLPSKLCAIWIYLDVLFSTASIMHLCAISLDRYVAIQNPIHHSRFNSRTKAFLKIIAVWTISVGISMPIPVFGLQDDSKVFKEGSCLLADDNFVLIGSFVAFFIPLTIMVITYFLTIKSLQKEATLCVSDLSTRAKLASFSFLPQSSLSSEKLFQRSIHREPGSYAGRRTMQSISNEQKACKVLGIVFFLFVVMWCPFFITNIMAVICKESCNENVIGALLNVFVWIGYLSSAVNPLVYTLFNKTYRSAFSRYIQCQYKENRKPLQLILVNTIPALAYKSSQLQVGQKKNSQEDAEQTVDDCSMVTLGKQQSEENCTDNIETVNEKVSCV

| Structure (SMILES) | Kb [pM] | Kb (rat jugular vein, contraction to serotonin, 1 hour incubation with test compound, 37° C., average of the number of trials, read-out: log KB ± standard error (-log KB, serotonin receptor activity) (converted)) [pM] |
| --- | --- | --- |
| CC(C)n1cc2c3c(cccc31)[C@H]1C[C@@H](C(=O)OC3CC4CC(O)CC4C3)CN(C)[C@@H]1C2 (stereo partly drawn) [Example 3, Octahydro-5-hydroxy-2-pentalenyl 1-isopropyl-9,10-dihydrolysergate hemihydrate] | 631 |  |
| CC(C)n1cc2c3c(cccc31)[C@H]1C[C@@H](C(=O)OC3CCCC4C(O)CCCC34)CN(C)[C@@H]1C2 (stereo partly drawn) [Example 1, Decahydro-t-hydroxy-1-naphthalenyl 1-isopropyl-9,10-dihydrolysergate maleate] |  | 224 |
| CC(C)n1cc2c3c(cccc31)[C@H]1C[C@@H](C(=O)OC3CCC4CCCCC4C3)CN(C)[C@@H]1C2 (stereo partly drawn) [Example 2, Decahydro-2-naphthalenyl 1-isopropyl-9,10-dihydrolysergate maleate] | < 100000 |  |

Source: patent publication US4835159A, “Ergoline esters useful as serotonin antagonists” (Eli Lilly and Company, priority 1988, dated 1989)
